From paper PMC6017090, “Design, Synthesis and Biological Evaluation of Novel N-Pyridyl-Hydrazone Derivatives as Potential Monoamine Oxidase (MAO) Inhibitors” (Molecules : A Journal of Synthetic Chemistry and Natural …, 2018) come the findings set out here.

In one data set the target is T1, MAO-A enzyme (Homo sapiens, UniProt P21397).
T1 construct: purchased Sigma-Aldrich
T1 sequence (P21397 1-527): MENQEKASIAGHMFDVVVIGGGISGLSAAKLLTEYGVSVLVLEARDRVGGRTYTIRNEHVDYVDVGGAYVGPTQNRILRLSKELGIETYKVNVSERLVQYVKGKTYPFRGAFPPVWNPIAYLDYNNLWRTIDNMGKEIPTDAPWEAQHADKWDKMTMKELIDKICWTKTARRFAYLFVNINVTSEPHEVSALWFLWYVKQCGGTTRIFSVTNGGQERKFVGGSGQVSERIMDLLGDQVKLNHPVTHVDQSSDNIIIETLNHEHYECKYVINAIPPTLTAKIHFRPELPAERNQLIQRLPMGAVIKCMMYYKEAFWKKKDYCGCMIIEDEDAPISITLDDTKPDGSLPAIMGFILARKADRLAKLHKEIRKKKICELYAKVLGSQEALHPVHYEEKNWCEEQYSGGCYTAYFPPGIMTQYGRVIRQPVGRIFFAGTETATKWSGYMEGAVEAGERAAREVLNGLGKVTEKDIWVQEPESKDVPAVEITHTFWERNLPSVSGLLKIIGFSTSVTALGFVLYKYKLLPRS
The experiment in a line: MAO activity assay (fluorometric, kynuramine substrate), MAO-A. Format: biochemical. Particulars: for inhibition at 1000 µM: 10^−3 M; for inhibition at 1000 µM / inhibition at 100 µM: ± S.D.; for inhibition at 100 µM: 10^−4 M; for inhibition at 10 µM: 10^−5 M; for inhibition at 1 µM: 10^−6 M; for inhibition at 0.1 µM: 10^−7 M; for inhibition at 0.01 µM: 10^−8 M; for inhibition at 0.001 µM: 10^−9 M. As to the method:
The enzyme activity assay was performed in accordance with the procedure reported by Matsumoto et al. with slight modifications. All materials used in the enzymatic assays were purchased from Sigma-Aldrich Chemicals. All pipetting protocols in the assay were performed by the Biotek Precision robotic system (BioTek Instruments, Inc., Winooski, VT, USA). To prevent the effect of light MAO enzymes, the assay was performed in 96-well black plates. […] The enzyme stock solutions were further diluted with an assay buffer to obtain final concentrations of 0.006 mg/mL MAO-A and 0.015 mg/mL MAO-B. Kynuramine was dissolved in sterilized distilled water to obtain a 25 mM stock solution and then diluted with the assay buffer to obtain final concentrations of 40 μM for the MAO-A enzyme and 20 μM for the MAO-B enzyme. […] The addition of the diluted compounds was followed by the addition of either the MAO-A or MAO-B enzymes (50 μL/well). […] Fluorescence was read from top by using BioTek-Synergy H1 multimode microplate reader at the excitation/emission wavelengths of 310 and 380 nm.
(§1) The IC50 values (Table 2) were calculated from the plots of enzyme activity against concentrations, and the regression analyses were computed in GraphPad Prism Version 6 (GraphPad Software, Inc., La Jolla, CA, USA).

For a further data set, the target named is T2, human recombinant MAO-B (Homo sapiens, UniProt P27338).
T2 construct: purchased Sigma-Aldrich
T2 sequence (P27338 1-520): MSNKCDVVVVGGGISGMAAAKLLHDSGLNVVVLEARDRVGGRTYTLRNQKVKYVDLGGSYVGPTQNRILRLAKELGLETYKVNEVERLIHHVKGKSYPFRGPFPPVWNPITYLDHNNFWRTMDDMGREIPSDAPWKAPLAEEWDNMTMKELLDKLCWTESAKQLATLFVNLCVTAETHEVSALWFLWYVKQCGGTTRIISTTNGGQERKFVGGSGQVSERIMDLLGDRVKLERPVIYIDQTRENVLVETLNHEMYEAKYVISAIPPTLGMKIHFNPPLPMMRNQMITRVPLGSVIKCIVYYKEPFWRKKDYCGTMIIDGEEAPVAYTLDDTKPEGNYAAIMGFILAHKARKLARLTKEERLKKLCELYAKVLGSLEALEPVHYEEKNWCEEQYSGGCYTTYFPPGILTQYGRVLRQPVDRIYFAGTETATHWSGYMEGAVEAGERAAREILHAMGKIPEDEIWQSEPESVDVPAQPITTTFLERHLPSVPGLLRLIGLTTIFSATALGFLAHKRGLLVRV
The experiment in a line: MAO activity assay (fluorometric, kynuramine substrate), MAO-B. Format: biochemical. Particulars: ± S.D.; for inhibition at 1000 µM: 10^−3 M; for inhibition at 100 µM: 10^−4 M. Here is the method: The enzyme activity assay was performed in accordance with the procedure reported by Matsumoto et al. with slight modifications. All materials used in the enzymatic assays were purchased from Sigma-Aldrich Chemicals. All pipetting protocols in the assay were performed by the Biotek Precision robotic system (BioTek Instruments, Inc., Winooski, VT, USA). To prevent the effect of light MAO enzymes, the assay was performed in 96-well black plates. Phosphate buffer (0.1 M, pH = 7.4) was used for the preparation of 5 mg/mL stock solutions of the human recombinant MAO-A and MAO-B enzymes. The enzyme stock solutions were further diluted with an assay buffer to obtain final concentrations of 0.006 mg/mL MAO-A and 0.015 mg/mL MAO-B. Kynuramine was dissolved in sterilized distilled water to obtain a 25 mM stock solution and then diluted with the assay buffer to obtain final concentrations of 40 μM for the MAO-A enzyme and 20 μM for the MAO-B enzyme. […] The addition of the diluted compounds was followed by the addition of either the MAO-A or MAO-B enzymes (50 μL/well). […] Fluorescence was read from top by using BioTek-Synergy H1 multimode microplate reader at the excitation/emission wavelengths of 310 and 380 nm.
as §1

Data set [1] is described as follows: Cytotoxicity test (MTT assay). Particulars: mouse, NIH/3T3 mouse embryonic fibroblast cells (ATCC CRL-1658).
Protocol: The MTT assay was performed as previously described [21, 22, 23, 24, 25, 26].

With `CCOc1ccc([N+](=O)[O-])c(NN=Cc2ccccc2)n1` [Compound 2a, 2-(2-Benzylidenehydrazinyl)-6-ethoxy-3-nitropyridine], the melting point turned out to be 168 °C. At MAO-A enzyme, the inhibition at 1000 µM turned out to be 25.6 ± 0.88% and the inhibition at 100 µM was 17.9 ± 0.68%. For the same molecule, at human recombinant MAO-B, the inhibition at 1000 µM was 0.76 ± 0.03% and the inhibition at 100 µM came to 0.58 ± 0.01%.
On the same counts, the results for `CCOc1ccc([N+](=O)[O-])c(NN=Cc2ccc(Cl)cc2)n1` [Compound 2b, 2-[2-(4-Chlorobenzylidene)hydrazinyl]-6-ethoxy-3-nitropyridine] are 211 °C, 49 ± 1.22%, 0.46 ± 0.01%, 0.43 ± 0.02% and 0.11 ± 0.004%.
The matching figures for `CCOc1ccc([N+](=O)[O-])c(NN=Cc2ccc(F)cc2)n1` [Compound 2c, 6-Ethoxy-2-[2(4-fluorobenzylidene)hydrazinyl]-3-nitropyridine]: 191 °C, 52 ± 1.02%, 7.09 ± 0.18%, 60.2 ± 1.18% and 0.69 ± 0.03%.
The matching figures for `CCOc1ccc([N+](=O)[O-])c(NN=Cc2ccc(C)cc2)n1` [Compound 2d, 6-Ethoxy-2-[2-(4-methylbenzylidene)hydrazinyl]-3-nitropyridine]: 171 °C, 20.1 ± 0.41%, 11.4 ± 0.28%, 0.52 ± 0.02% and 0.18 ± 0.006%.
With `CCOc1ccc([N+](=O)[O-])c(NN=Cc2ccc(OC)cc2)n1` [Compound 2e, 6-Ethoxy-2-[2-(4-methoxybenzylidene)hydrazinyl]-3-nitropyridine], the melting point amounted to 175 °C. Further, on MAO-A enzyme, the inhibition at 1000 µM is 55.6 ± 1.05% and the inhibition at 100 µM stood at 14 ± 0.41%. Also, at human recombinant MAO-B, the inhibition at 1000 µM is 33.1 ± 1.14% and the inhibition at 100 µM turned out to be 0.22 ± 0.008%.
Regarding `CCOc1ccc([N+](=O)[O-])c(NN=Cc2ccc([N+](=O)[O-])cc2)n1` [Compound 2f, 6-Ethoxy-3-nitro-2-[2-(4-nitrobenzylidene)hydrazinyl]pyridine], the melting point was found to be 281 °C. For the same molecule, on MAO-A enzyme, the inhibition at 1000 µM turned out to be 65 ± 1.23% and the inhibition at 100 µM was found to be 16 ± 0.56%. On human recombinant MAO-B, the inhibition at 1000 µM was found to be 7.39 ± 0.31% and the inhibition at 100 µM was determined as 0.55 ± 0.02%.
`CCOc1ccc([N+](=O)[O-])c(NN=Cc2ccc(C#N)cc2)n1` [Compound 2g, 6-Ethoxy-2-[2-(4-cyanobenzylidene)hydrazinyl]-3-nitropyridine] had a melting point of 267 °C. On MAO-A enzyme, the inhibition at 1000 µM came out at 25.9 ± 0.87% and the inhibition at 100 µM was determined as 14.4 ± 0.54%. On human recombinant MAO-B, the inhibition at 1000 µM was found to be 0.67 ± 0.03% and the inhibition at 100 µM was determined as 0.27 ± 0.01%.
On to `CCOc1ccc([N+](=O)[O-])c(NN=Cc2ccc(N(C)C)cc2)n1` [Compound 2h, 6-Ethoxy-2-[2-(4-dimethylaminobenzylidene)hydrazinyl]-3-nitropyridine], for which the melting point worked out at 192 °C. Moreover, at MAO-A enzyme, the inhibition at 1000 µM amounted to 80.8 ± 1.31% and the inhibition at 100 µM came to 16.9 ± 0.49%. Also, at human recombinant MAO-B, the inhibition at 1000 µM was 86.3 ± 1.25% and the inhibition at 100 µM came out at 3.52 ± 0.15%.
The molecule `CCOc1ccc([N+](=O)[O-])c(NN=Cc2ccc(C(F)(F)F)cc2)n1` [Compound 2i, 6-Ethoxy-2-[2-(4-trifluoromethylbenzylidene)hydrazinyl]-3-nitropyridine] displayed a melting point of 165 °C. For the same molecule, at MAO-A enzyme, the IC50 was determined as 13.1 µM, the inhibition at 1000 µM turned out to be 55.7 ± 1.26%, the inhibition at 100 µM worked out at 51.7 ± 1.18% and the inhibition at 10 µM turned out to be 31.2 ± 1.2%. At MAO-A enzyme, the inhibition at 1 µM worked out at 21.1 ± 0.84%, the inhibition at 0.1 µM was determined as 15.4 ± 0.62%, the inhibition at 0.01 µM was found to be 12.7 ± 0.43% and the inhibition at 0.001 µM came to 11.6 ± 0.38%. In addition, at human recombinant MAO-B, the inhibition at 1000 µM is 38.3 ± 1.19% and the inhibition at 100 µM stood at 29.1 ± 0.99%. Besides, the IC50 in data set [1] was over 1000 µM.
In turn, `CCOc1ccc([N+](=O)[O-])c(NN=Cc2cccn2C)n1` [Compound 2k, 6-Ethoxy-2-[2-((1-methyl-1H-pyrrol-2-yl)methylene)hydrazinyl]-3-nitropyridine] had a melting point of 163 °C. On MAO-A enzyme, the IC50 worked out at 6.12 µM, the inhibition at 1000 µM was 76.6 ± 1.38%, the inhibition at 100 µM was found to be 66.1 ± 1.47% and the inhibition at 10 µM is 54.7 ± 1.2%. On MAO-A enzyme, the inhibition at 1 µM is 36.6 ± 1.08%, the inhibition at 0.1 µM stood at 33.2 ± 0.92%, the inhibition at 0.01 µM is 25.2 ± 0.88% and the inhibition at 0.001 µM is 23 ± 0.89%. Further, on human recombinant MAO-B, the inhibition at 1000 µM amounted to 40.9 ± 1.02% and the inhibition at 100 µM is 39.7 ± 1.15%. Also, in data set [1], the half-inhibitory concentration (IC50) was over 1000 µM.
Molecule `CCOc1ccc([N+](=O)[O-])c(NN=Cc2ccco2)n1` [Compound 2l, 6-Ethoxy-2-[2-((furan-2-yl)methylene)hydrazinyl]-3-nitropyridine] had a melting point of 155 °C. Moreover, on MAO-A enzyme, the IC50 came to 10.6 µM, the inhibition at 1000 µM came to 67.8 ± 1.44%, the inhibition at 100 µM came out at 64.4 ± 1.3% and the inhibition at 10 µM was determined as 43 ± 1.02%. Also, on MAO-A enzyme, the inhibition at 1 µM worked out at 31 ± 0.98%, the inhibition at 0.1 µM is 27.2 ± 0.89%, the inhibition at 0.01 µM was determined as 19.8 ± 0.41% and the inhibition at 0.001 µM came to 17.88 ± 0.17%. Besides, on human recombinant MAO-B, the inhibition at 1000 µM turned out to be 51 ± 1.08% and the inhibition at 100 µM was determined as 43 ± 1.06%. Also, the IC50 in data set [1] was over 1000 µM.
`CCOc1ccc([N+](=O)[O-])c(NN=Cc2cccs2)n1` [Compound 2m, 6-Ethoxy-3-nitro-2-[2-((thiophen-2-yl)methylene)hydrazinyl]pyridine] registered a melting point of 152 °C. Also, at MAO-A enzyme, the inhibition at 1000 µM came to 41.4 ± 1.13% and the inhibition at 100 µM came to 36 ± 1.15%. Besides, on human recombinant MAO-B, the inhibition at 1000 µM turned out to be 34.4 ± 0.88% and the inhibition at 100 µM was determined as 21.2 ± 0.8%.
In the case of `O=C(NCCN1CCOCC1)c1ccc(Cl)cc1` [Moclobemide, moclobemide, reference compound], on MAO-A enzyme, the inhibition at 10 µM worked out at 60.5 ± 2.55%, the inhibition at 1 µM is 36.1 ± 1.98%, the inhibition at 0.1 µM was 22.1 ± 1.33% and the inhibition at 0.01 µM worked out at 18.2 ± 0.81%. Moreover, the inhibition at 0.001 µM on MAO-A enzyme came out at 14.1 ± 0.72%.
